Measured values published in PubChem BioAssay (NCI).
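Briefly, cells in 96-well plates were exposed to five compound concentrations for 48 h, and endpoints were estimated by linear interpolation. GI50 marks 50% less growth. Definition used: TGI = concentration required for complete inhibition of growth.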

Experiments:
Test in all cases: NCI anticancer screen, dose series, 48 h
HCT-116 colon = test system: HCT-116 colon
NCI-H23 lung = test system: NCI-H23 lung
SNB-19 CNS = test system: SNB-19 CNS
786-0 renal = test system: 786-0 renal
U251 CNS = test system: U251 CNS
K-562 leukemia = test system: K-562 leukemia
HOP-62 NSCLC = test system: HOP-62 NSCLC
HT29 colon = test system: HT29 colon
SF-268 CNS = test system: SF-268 CNS
COLO 205 colon = test system: COLO 205 colon

SMILES	TGI (HCT-116 colon) [µM]	TGI (NCI-H23 lung) [µM]	TGI (SNB-19 CNS) [µM]	TGI (786-0 renal) [µM]	TGI (U251 CNS) [µM]	TGI (K-562 leukemia) [µM]	TGI (HOP-62 NSCLC) [µM]	TGI (HT29 colon) [µM]	TGI (SF-268 CNS) [µM]	TGI (COLO 205 colon) [µM]	GI50 (HCT-116 colon) [µM]	GI50 (NCI-H23 lung) [µM]	GI50 (SNB-19 CNS) [µM]	GI50 (786-0 renal) [µM]	GI50 (U251 CNS) [µM]	GI50 (K-562 leukemia) [µM]	GI50 (HOP-62 NSCLC) [µM]	GI50 (HT29 colon) [µM]	GI50 (SF-268 CNS) [µM]	GI50 (COLO 205 colon) [µM]
CC1C=C(OC(=O)c2ccccc2)C(=O)C(n2cc(F)c(=O)[nH]c2=O)O1 (stereo not given)	> 100	> 100	> 100	> 100	> 100	> 100	> 100	> 100	> 100	> 100	–	–	–	–	–	–	–	–	–	–
COc1cc2c(c(OC)c1)C1c3ccccc3NC(=O)N1CC2 (stereo not given)	> 100	> 100	> 100	> 100	> 100	> 100	> 100	> 100	> 100	8.25	3.69	3.69	7	4.63	4.38	2.98	3.28	3.37	7.02	2.82
COc1ccc(/C(C#N)=C/c2ccccc2OC)cc1	> 100	> 100	> 100	> 100	78.4	> 100	> 100	18.3	> 100	32.4	4.46	18.8	30.3	15.2	4.63	4.11	19.9	3.95	35.5	5.96
CC(C)[C@H]1CO[C@]2(C)[C@@H]3CN(Cc4ccccc4)C[C@@H]3C(=O)N12	> 100	> 100	> 100	> 100	> 100	> 100	> 100	> 100	> 100	> 100	–	–	–	–	–	–	–	–	–	–
C1C[OH+]CC[OH+]CCNCC[OH+]CC[OH+]CCN1.N.[Cl-].[Pt+4]	65.8	12	62.6	39.2	> 100	> 100	66.3	> 100	14.5	> 100	10.1	1.8	7.22	3.98	7.19	12.7	6.11	22.1	1.99	36.7
Nc1nc2c(c3ncncc13)C(c1cccc(C(F)(F)F)c1)Cc1ncncc1-2 (stereo not given)	37	> 100	33.2	27.4	13.6	22.8	47.2	15.9	37.7	13.8	4.85	5.17	4.88	4.43	3.69	3.74	7.41	4.2	5.94	3.26
COc1cc(OC)c2c(c1)C(=O)C(CC(C)O)=CC2=O (stereo not given)	25	34.9	31.6	29.9	31.8	78.8	33.6	36.8	33	32.6	–	–	–	–	–	–	–	–	–	–
CCCCCCCCCCCC(=O)OCC1OC(n2cc(F)c(=O)[nH]c2=O)C(NC(=O)OCc2ccccc2)C(OC(=O)CCCCCCCCCCC)C1O (stereo not given)	> 100	> 100	> 100	> 100	> 100	> 100	> 100	> 100	> 100	> 100	–	–	–	–	–	–	–	–	–	–
CN1CCC(n2cnc(-c3ccc(F)cc3)c2-c2ccnc(NCCO)n2)CC1	> 25	> 25	> 25	> 25	> 25	> 25	> 25	> 25	> 25	> 25	14.5	> 25	> 25	> 23.9	12.7	18.3	> 25	10	18.2	8.86
C=CC/C=C/Cc1csc(C(C)(C)C(O)C/C=C/C(=C)CCNC(=O)OC)n1 (stereo not given)	> 100	> 100	> 100	> 100	> 100	> 81.5	> 100	> 100	> 100	> 100	–	–	–	–	–	–	–	–	–	–
CCOC(=O)COc1ccccc1/C=C1\CCC(CN(C)C)C1=O (stereo not given)	9.36	19.3	20.6	11.7	14.8	6.51	35.8	22.6	12.7	11.1	–	–	–	–	–	–	–	–	–	–
